Results on one compound are retold here after patent US12440451B2, “Compositions and methods using an epigenetic inhibitor” (DANA-FARBER CANCER INSTITUTE, INC., priority 2017, dated 2025).

The test system of data set [1] is H3K27-ac in CD8+ T cells. Briefly: H3K27-ac ChIP-sequencing of activated CD8+ T cells. Type of data set: cell-based, mouse. To be noted: days 5 and 7 post-activation. On the procedure:
ChIP-sequencing was then performed to survey the genomic landscape of H3K27 acetylation in the absence or the presence of HDAC3 activity on days 5 and 7 post-activation using the same in vitro activation co-culture system as in as described in FIG. 1 and Example 1 above.
FIGS. 9C-9H show H3K27-ac ChIP-sequence tracks, from top to bottom: naïve CD8^+ T cells (day 0): control-treated cells, day 5 post-activation: RGFP966-treated cells, day 5 post-activation: control-treated cells, day 7 post-activation: RGFP966-treated cells, day 7 post-activation. Arrows under gene names indicate direction of transcription. Tracks were visualized with the IGV genome browser (Broad Institute, MA).

In data set [2] the test system is OT-I+ CD8+ T cells. The experiment in a line: immunoblot time course of sorted CD8+ T cells after activation. Type of data set: cell-based, mouse. To be noted: 3 μM. On the procedure:
Analysis was first made on expression of HDAC3 and its known binding partners, global histone acetylation levels, and known regulatory transcription factors of CD8^+ T cell effector function across a time course of T cell activation in the absence or presence of the HDAC3 inhibitor RGFP966.
To do so, OT-I^+ CD8^+ T cells were activated in vitro for 7 days, as described in FIG. 1 and Example 1 above. Activated cells received either 0 μM or 3 μM of HDAC3 inhibitor RGF966. Sorted CD8^+ T cells from the in vitro co-cultures were then assessed for HDAC3 and various markers by immunoblot at 2, 22, 72, 120, and 168 hours after activation (see immunoblot of FIG. 9A). The markers assessed included: NCOR1 and NCOR2 (part of the HDAC3/NCOR complex): BCL-6, T-BET, and BLIMP-1 (markers of the BCL-6-5-bet pathway): GAPDH and LAMIN BI (protein loading controls): acetylated residues H3K9 and H3K27, and histone H3 (markers of histone H3 acetylation).

Data set [3] relates to B16-Ova cells. The experiment in a line: in vitro 51Cr release cytotoxicity assay of activated OT-I+ CD8+ T cells against target cells. To be noted: for specific lysis of cells expressing target antigen: 4 hours co-incubation, FIG. 4A. In kind it is cell-based, mouse. On the procedure:
In order to functionally assess the phenotype of OT-I^+ CD8^+ T cells activated in the presence of RGFP966, the ability of the activated T cells to kill B16 melanoma tumor cell targets expressing the cognate SIINFEKL (SEQ ID NO: 1) antigen of the OT-I TCR was assayed. The B16-Ova cells were engineered to express chicken ovalbumin in their cytosol, and express SIINFEKL (SEQ ID NO: 1) on Kb MHC I molecules when treated with IFN-γ. In preparation for the cytotoxicity assay, B16-Ova cells were treated with 10 ng/ml IFN-γ for 48 hours prior to harvest and loading with ^51Cr radionuclide. After radiolabeling, B16-Ova cells were seeded into 96-well plates (5×10^3/well) and allowed to adhere for 1 hour prior to addition of CD8^+ effector cells. OT-I^+ CD8^+ T cells were activated as described above using SIINFEKL-pulsed BMDCs in the presence of 10 μM, 1 μM, or 0 μM RGFP966. After 7 days of activation, T cells were harvested, washed to remove the drug, and counted. OT-I^+ CD8^+ effector cells were added to the assay plates containing B16-Ova target cells at the indicated ratios: there was no drug present during the cytotoxicity assay. Specific killing of targets was assessed by measurement of 51Cr release into the culture supernatant 4 hours after co-culture. To verify that genetic ablation of HDAC3 functionally recapitulated the augmented cytotoxic effector phenotype of HDAC3 inhibition using RGFP966, HDAC3-KO T cells were generated from OT-I^+ CD8^+ Cas9^+ T cells as described above, and compared with RGFP966-treated T cells from the same batch in an in vitro cytotoxicity assay.

Data set [4] relates to other HDACs. To be noted: reported; cited from earlier work.
The test system of data set [5] is OT-I+ CD8+ T cells. Briefly: APC-free T cell activation with anti-CD3 and anti-CD28 antibodies, flow cytometry. In kind it is cell-based, mouse. The settings on record: anti-CD3 and anti-CD28 or BMDC+SIINFEKL activation; 7 days; relative to DMSO. From the text: It was important to determine whether the observed effect of RGFP966 on CD8^+ T cells post-activation was due to the drug acting on T cells, on the antigen-presenting cells, or both. To do so, the effect of RGFP966 treatment on CD8^+ T cells activated was compared in parallel using either antigen-pulsed BMDCs or antibodies against CD3 and CD28. The latter method of activating T cells is free of APCs and allowed determination of whether the effect of RGFP966 required the presence of APCs.
96-well tissue culture plates were coated with 10 μg/ml α-CD3 antibodies overnight at 4° C., then washed with PBS prior to addition of OT-I^+ CD8^+ T cells (2×10^5/well) and α-CD28 antibody (2 μg/ml) (labeled as anti-CD3 and anti-CD28). OT-I^+ CD8^+ T cells from the same batch of cells were also activated in parallel on antigen-loaded BMDCs (labeled as BMDC+SIINFEKL (SEQ ID NO: 1)) were prepared as described above. T cells were activated for 7 days, with media changes on days 3 and 5, then collected for flow cytometry phenotype analysis.

Data set [6] has as its system human CD8+ T cells. The experiment in a line: activation of human CD8+ T cells with anti-CD3 and anti-CD28, flow cytometry. Type of data set: cell-based. To be noted: 10 μM; 7 days. On the procedure: Further investigation was conducted to discover whether the augmented cytotoxic effector phenotype observed in mouse CD8^+ T cells post-activation with HDAC3 inhibition was also true in human CD8^+ T cells. Total CD8^+ T cells were negatively isolated from the peripheral blood of healthy human donors, and activated in vitro using plate-bound anti-CD3 and soluble anti-CD28 antibodies in the presence or absence of 0 μM (vehicle control) or 10 μM RGFP966. Following 7 days of in vitro activation, without additional IL-2 supplementation, CD8^+ T cells were analyzed by flow cytometry for expression of markers associated with T cell activation, effector cytokines, and cytotoxicity. The results are summarized in the graphs of FIG. 13A.
For orientation: Flow cytometry measures light scatter and fluorescence of single cells or particles in a stream.

Data set [7] has as its system OT-I+ CD8+ T cells. Briefly: proliferation of activated T cells (total number of live cells by flow cytometry). In kind it is cell-based, mouse. To be noted: FIG. 3. On the procedure: T cells treated with RGFP966 also show increased proliferation relative to untreated T cells. FIG. 3 is a bar chart the total number of live cells detected in flow cytometry for activated OT-I^+ CD8^+ T cells that have been treated with 10 μM, 1 μM RGFP966, and no RGFP966 (vehicle control).

For the compound `Nc1cc(F)ccc1NC(=O)/C=C/c1cnn(C/C=C/c2ccccc2)c1` [RGFP966], in data set [1], the “H3K27-ac at GzmB, Fasl, ID2, PRDM1 and TBX21” value is on record as “increased H3K27-ac”; the “H3K27-ac at RUNX3” value is “increased H3K27-ac”. Also, in data set [1] (data not shown), the “H3K27ac at loci of effector cytokines, EOMES and BCL6” value is “no significant changes”. In data set [2], the “levels of BCL-6” value is given as “no significant changes” and the “levels of BLIMP-1 (PRDM1)” value is reported as “no significant changes”. For the same compound, in data set [2] (after 72 hours post-activation), the “global histone acetylation at H3K9” value is listed as “persistently high after 72 hours”. Also, the HDAC3 protein level result in data set [2] (immunoblot 2-168 hours) is given as “does not result in loss of HDAC3 protein”. In addition, the “expression of T-BET (TBX21)” value in data set [2] (relative to control-treated cells) is “increased in the drug-treated cells relative to control-treated cells”. Further, the NCOR2 level entry in data set [2] (starting at 120 hours post-activation) is “almost completely absent”. In addition, the “killing of cognate antigen-expressing target cells” value in data set [3] (T cells activated in the presence of the drug, dose-dependent) was “kill cognate antigen-expressing target cells more effectively than untreated cells”. In data set [3] (T cells activated with 1 μM), the “cytotoxicity compared with control treatment” value is recorded as “modest but non-significant increase in cytotoxicity” and the “specific lysis of cells expressing target antigen” value is “about 45%”. Moreover, the “specific lysis of cells expressing target antigen” value in data set [3] (T cells activated with 10 μM) is about 70%. The “concentration range at which other HDACs are not inhibited” value in data set [4] was under 15 µM. The “T cell effector phenotype (CD25, granzyme B, IFN-γ, TNF-α, IL-2)” value in data set [5] was “augmented their T cell effector phenotype across both methods of T cell activation”. Moreover, in data set [6], the “expression of CD25” value was “upregulation”, the “expression of CD44” value is on record as “upregulation” and the “expression of granzyme B” value is “upregulation”. Besides, the “T cell proliferation (total number of live cells)” value in data set [7] (1 μM) was “increasing T cell proliferation over vehicle control”. Further, the “T cell proliferation (total number of live cells)” value in data set [7] (10 μM) was “increasing T cell proliferation as compared to T cells treated with 1 μM RGFP966”.
